According to patent US6171829A, “Physiologically active substance PF1191 and process for producing the same” (Meiji Seika Kaisha, Ltd., priority 1997, dated 2001):
“Also recorded” adds a separate entry of the source.

Experiments:
[1] = tested on: primarily cultured chick telencephalon nerve cells; settings: Neuroscience Letters, vol. 139, 205-208 (1992); result in words; cited from earlier work
[2] = tested on: primarily cultured nerve cells of chick telencephalon; assay: Inhibitory activity to kainic acid toxicity, primarily cultured nerve cells of chick telencephalon; type: cell-based
Description: (§1) The inhibitory activities to kainic acid toxicity of the substance PF1191 on primarily cultured nerve cells of chick telencephalon and rat hippocampus were examined. The test with the use of the primarily cultured nerve cells of chick telencephalon was carried out in accordance with the method reported in Neuroscience Letters, vol. 139, 205-208 […], while the test with the use of the primarily cultured nerve cells of rat hippocampus was carried out in accordance with the method reported in Brain Research, 126(1977) 397-425.
(§2) The molar concentration at which the cytotoxicity caused by the addition of 500 μM of kainic acid to the cultured cells was inhibited at a ratio of 50% was expressed in EC50 (effective concentration-fifty) in Table 1 below.

[3] = tested on: primarily cultured nerve cells of rat hippocampus; assay: Inhibitory activity to kainic acid toxicity, primarily cultured nerve cells of rat hippocampus; type: cell-based
Description: as §1, §2

O=c1[nH]c2cc([N+](=O)[O-])c([N+](=O)[O-])cc2[nH]c1=O [DNQX, 6,7-dinitroquinoxaline-2,3-dione]
inhibition of kainic acid toxicity by non-NMDA receptor antagonists [1]: inhibited

N#Cc1cc2[nH]c(=O)c(=O)[nH]c2cc1[N+](=O)[O-] [CNQX, 6-cyano-7-nitroquinoxaline-2,3-dione]
inhibition of kainic acid toxicity by non-NMDA receptor antagonists [1]: inhibited

NS(=O)(=O)c1cccc2c1c([N+](=O)[O-])cc1[nH]c(=O)c(=O)[nH]c12 [NBQX, 6-nitro-7-sulfamoylbenzo[f]quinoxaline-2,3-dione]
inhibition of kainic acid toxicity by non-NMDA receptor antagonists [1]: inhibited

C=C(C)[C@H]1CN[C@H](C(=O)O)[C@H]1CC(=O)O [kainic acid]
toxicity to primarily cultured chick telencephalon nerve cells [1]: toxic

NC(C(=O)O)C(O)C1(C(=O)O)CCC(CC(NC(=O)c2cc(Cl)c(O)c(Cl)c2)C(=O)O)N1 (centres unmarked) [Substance PF1191]
EC50 ([2]; Gallus gallus, chick telencephalon nerve cells + kainic acid (500 μM), read-out: 50% Effective conc. (EC50), inhibitory activity to kainic acid toxicity): 1500 nM | inhibitory activity to kainic acid toxicity in comparison with DNQX ([2]; chick telencephalon nerve cells, kainic acid 500 μM, result in words): stronger inhibitory activity to kainic acid toxicity than that of DNQX; also recorded: stronger inhibitory activity to kainic acid toxicity in comparison with the known substance DNQX | EC50 ([3]; rat hippocampus nerve cells + kainic acid (500 μM), read-out: 50% Effective conc. (EC50), inhibitory activity to kainic acid toxicity): 450 nM | inhibitory activity to kainic acid toxicity in comparison with DNQX ([3]; rat hippocampus nerve cells, kainic acid 500 μM, result in words): stronger inhibitory activity to kainic acid toxicity in comparison with the known substance DNQX
